# pIC50: −log10 of the molar value. Active and inactive are the calls of the source. No cut-off for these calls is given here.
# What was measured:
# SK-MEL = assay: Cytotoxicity against SK-MEL cells upto 25 ug/mL by neutral red assay; assay type: cell-based; details: human
# [1] = target: T1, Estrogen receptor (Homo sapiens) (UniProt P03372); assay: Activity against human ERalpha expressed in recombinant yeast cells upto 500 ug/mL; assay type: cell-based
# T1 sequence (whole entry): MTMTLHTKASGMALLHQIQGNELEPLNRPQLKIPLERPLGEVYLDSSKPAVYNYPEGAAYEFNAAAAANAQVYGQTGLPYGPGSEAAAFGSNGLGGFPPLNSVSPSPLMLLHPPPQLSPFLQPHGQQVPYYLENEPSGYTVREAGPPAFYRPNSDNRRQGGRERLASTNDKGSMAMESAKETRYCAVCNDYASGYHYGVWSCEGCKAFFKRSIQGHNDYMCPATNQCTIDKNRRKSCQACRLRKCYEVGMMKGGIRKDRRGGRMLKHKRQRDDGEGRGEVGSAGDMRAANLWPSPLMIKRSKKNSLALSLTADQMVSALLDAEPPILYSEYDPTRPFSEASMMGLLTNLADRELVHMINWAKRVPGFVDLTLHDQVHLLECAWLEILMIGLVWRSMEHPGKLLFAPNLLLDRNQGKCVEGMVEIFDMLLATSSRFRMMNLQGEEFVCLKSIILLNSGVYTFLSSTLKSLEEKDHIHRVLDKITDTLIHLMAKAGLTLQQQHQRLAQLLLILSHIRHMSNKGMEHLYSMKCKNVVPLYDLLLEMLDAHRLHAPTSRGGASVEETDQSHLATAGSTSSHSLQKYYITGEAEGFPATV
# SK-OV-3 = assay: Cytotoxicity against SKOV3 cells upto 25 ug/mL by neutral red assay; assay type: cell-based; details: human
# HL-60 = assay: Antioxidant activity in HL60 cells by DCFH-DA method upto 20ug/mL; assay type: functional, cell-based; details: Homo sapiens
# Vero = assay: Cytotoxicity against Vero cells upto 25 ug/mL by neutral red assay; assay type: cell-based; details: chlorocebus sabaeus
# KB = assay: Cytotoxicity against KB cells upto 25 ug/mL by neutral red assay; assay type: cell-based; details: human
# LLC-PK1 = assay: Cytotoxicity against LLC-PK1 cells upto 25 ug/mL by neutral red assay; assay type: cell-based, Sus scrofa; details: pig
# BT-549 = assay: Cytotoxicity against BT549 cells upto 25 ug/mL by neutral red assay; assay type: cell-based; details: human
# Homo sapiens = species on record: Homo sapiens; assay: (§1) Inhibition of activation of human complement
# [2] = as §1
Compound,Activity (SK-MEL),Activity [1],Activity (SK-OV-3),Activity (HL-60),Activity (Vero),Activity (KB),Activity (LLC-PK1),Activity (BT-549),Activity (Homo sapiens),pIC50 [2]
CC(=O)O[C@@H]1C[C@@]23C[C@@]24CC[C@H](O[C@@H]2OC[C@@H](O)[C@H](O)[C@H]2O)C(C)(C)[C@@H]4CC=C3[C@]2(C)C[C@@H]3O[C@@]4(O[C@H]4C(C)(C)O)[C@H](O)[C@@H](C)[C@@H]3[C@@]12C,Not Active,inactive,Not Active,inactive,Not Active,Not Active,Not Active,Not Active,inactive,–
C[C@H]1[C@H]2[C@H](C[C@@]3(C)C4=CC[C@H]5C(C)(C)[C@@H](O[C@@H]6OC[C@@H](O)[C@H](O)[C@H]6O)CC[C@@]56C[C@@]46CC[C@]23C)O[C@@]2(O[C@H]2C(C)(C)O)[C@@H]1O,Not Active,inactive,Not Active,inactive,Not Active,Not Active,Not Active,Not Active,inactive,–
CC1(C)CC[C@]2(C(=O)O)CC[C@]3(C)C(=CC[C@@H]4[C@@]5(C)CC[C@H](O)C(C)(C)[C@@H]5CC[C@]43C)[C@@H]2C1 [OLEANOLIC_ACID],–,–,–,–,–,–,–,–,–,4.11
CC(=O)O[C@@H]1C[C@@]23C[C@@]24CC[C@H](O[C@@H]2OC[C@@H](O)[C@H](O)[C@H]2O)C(C)(C)[C@@H]4CCC3[C@]2(C)C[C@@H]3O[C@@]4(O[C@H]4C(C)(C)O)[C@H](O)[C@@H](C)[C@@H]3[C@@]12C (some centres undefined),Not Active,inactive,Not Active,inactive,Not Active,Not Active,Not Active,Not Active,inactive,–
CC(=O)O[C@@H]1C[C@@]23C[C@@]24CC[C@H](O[C@@H]2OC[C@@H](O)[C@H](O)[C@H]2O)C(C)(C)[C@@H]4CC[C@H]3[C@]2(C)[C@@H](O)[C@]34O[C@H](C[C@@H](C)[C@@H]3[C@@]12C)[C@@H](C(C)(C)O)O4,Not Active,inactive,Not Active,inactive,Not Active,Not Active,Not Active,Not Active,inactive,–
CC(=O)O[C@@H]1C[C@@]23C[C@@]24CC[C@H](O)C(C)(C)[C@@H]4CC[C@H]3[C@]2(C)[C@@H](O)[C@]34O[C@H](C[C@@H](C)[C@@H]3[C@@]12C)[C@@H](C(C)(C)O)O4,Not Active,inactive,Not Active,inactive,Not Active,Not Active,Not Active,Not Active,–,3.73
C[C@@H]1C[C@H]2O[C@@]3(O[C@@H]2C(C)(C)O)[C@H](O)[C@@]2(C)[C@@H]4CC[C@H]5C(C)(C)[C@@H](O[C@@H]6OC[C@@H](O)[C@H](O)[C@H]6O)CC[C@@]56C[C@@]46CC[C@]2(C)[C@@H]13,Not Active,inactive,Not Active,inactive,Not Active,Not Active,Not Active,Not Active,inactive,–
C[C@H]1[C@H](C)CC[C@]2(C(=O)O)CC[C@]3(C)C(=CC[C@@H]4[C@@]5(C)CC[C@H](O)C(C)(C)[C@@H]5CC[C@]43C)[C@H]12 [URSOLIC ACID],–,–,–,–,–,–,–,–,–,4.26
CC(=O)O[C@@H]1C[C@@]23C[C@@]24CC[C@H](O[C@@H]2OC[C@@H](O)[C@H](O)[C@H]2O)C(C)(C)[C@@H]4CC[C@H]3[C@]2(C)C[C@@H]3O[C@@]4(C[C@@H](C)[C@@H]3[C@@]12C)OC[C@]1(C)O[C@H]41,Not Active,inactive,Not Active,inactive,Not Active,Not Active,Not Active,Not Active,inactive,–
CC(=O)O[C@H](C[C@@H](C)[C@H]1C(=O)[C@H](O)[C@@]2(C)[C@@H]3CC[C@H]4C(C)(C)[C@@H](O[C@@H]5OC[C@@H](O)[C@H](O)[C@H]5O)CC[C@@]45C[C@@]35CC[C@]12C)[C@H]1OC1(C)C,Not Active,inactive,Not Active,inactive,Not Active,Not Active,Not Active,Not Active,inactive,–
